From article PMC7248705, “A Pharmacokinetic and Pharmacodynamic Evaluation of the Anti-Hepatocellular Carcinoma Compound 4-N-Carbobenzoxy-gemcitabine (Cbz-dFdC)” (Molecules, 2020)
“Also recorded” adds a separate entry of the source.

Key:
human HepG2 cell line = assay: CCK-8 tumor cell growth inhibition assay; type: cell-based; settings: HepG2, CCK-8, concentration-dependent
Description: The cells were cultured on a 96-well plate for 4 h for each well. Then, dimethyl sulfoxide solution containing 0.1–100 mM of Cbz-dFdC and dFdC was diluted 1000 times with the medium before administration. A total of 200 uL of medium containing Cbz-dFdC and dFdC was added per well (n = 6). The medium with drugs was discarded, and 10% CCK-8 solution was added. Then, the absorbance value was read at a wavelength of 450 nm after incubation at 37 °C, for 30 min. The drug concentration of Cbz-dFdC and dFdC in cell were determined by a previously established method.

[1] = Plasma pharmacokinetics in vivo; settings: SD, rat, po; plasma analyte after i.g. Cbz-dFdC 22 mg/kg, rats
Description: SD rats (n = 6) were intragastrically administered Cbz-dFdC (22 mg/kg) and intravenously injected with dFdC (15 mg/kg), and 150 μL blood samples were collected from the retro-orbital route in the right eye at 0, 5, 10, 20, and 30 min and at 1, 2, 4, 6, 12, 24, and 48 h, using heparinized tubes. Without delay, the blood was directly centrifuged at 8000× g at 4 °C for 5 min. Then, the supernatant plasma was collected and immediately extracted using a previously established method or was frozen at −80 °C until further analysis.

[2] = Tissue distribution (liver, kidney, intestine); type: in vivo, SD rats; settings: rats
Description: In order to investigate the drug distribution in different tissues and the relationship between CES1 activity and tissue concentration, we conducted tissue distribution experiments. The SD rats were divided into six groups (n = 6 for each group). After a single intragastric administration of Cbz-dFdC (22 mg/kg) and a single injected administration of dFdC (15 mg/kg), the SD rats were sacrificed at 0.5 h, 1.5 h, and 4 h, and the liver, kidney, and intestine were collected. The liver was perfused with ice-cold normal saline and then removed, followed by ice-cold normal saline cleaning. The kidney and intestine were directly removed and then washed with ice-cold normal saline. All of the above operations were carried out on ice, and the removed tissue was stored in an ice bath. The liver, kidney, and intestine were cut and crushed, homogenized with an appropriate amount of phosphate buffer by a homogenizer, and then diluted 5 times with ice-cold PBS buffer (in an ice bath). The tissue homogenates were determined with a BCA kit for protein concentration, a CES1 kit for CES1 activity, and UFLC–MS/MS for drug tissue concentration after pretreatment; the pretreatment method was reported previously.

[3] = Enzymatic kinetics in vitro, rat kidney S9; type: in vitro ADME; settings: 37 °C, 5–200 μM Cbz-dFdC
Description: (§1) The SD rats without any treatment were sacrificed after adapting to the environment. Blank blood, the liver, the kidney, and the intestine were collected and treated as described in Section 4.4. Part of the homogenate was removed for centrifugation for 20 min at 9000× g at 4 °C, and the supernatant was obtained as tissue S9. The tissue homogenate and S9 were diluted to […] after the protein concentration was determined by the BCA kit (Abcam, Cambridge, MA, USA). Each matrix consisted of 45 uL of the matrix mixed with 5 uL of the drug dissolved in normal saline solution for about 3 min, followed by incubation at 37 °C in a water bath. Then, acetonitrile containing the internal standard was added to terminate the reaction. Human tissue S9 and human CES1 recombinase purchased from the Ruid Liver Disease Research Co., Ltd. (Shanghai, China) were incubated under the same conditions. An enzyme kinetic study was obtained from the matrix following incubation at 37 °C for 30 min with 5, 10, 20, 50, 100, or 200 μM of Cbz-dFdC. We estimated the parameters and simulated curves according to the Eadie–Hofstee method.

[4] = Enzymatic kinetics in vitro, rat plasma; type: in vitro ADME; settings: 37 °C, 30 min, 5–200 μM Cbz-dFdC
Description: as §1

[5] = Incubation in human plasma and S9 of the kidney and intestine; type: in vitro ADME
Description: as §1

[6] = Incubation in rat intestine homogenate and S9; type: in vitro ADME
Description: as §1

[7] = Enzymatic kinetics in vitro, rat liver S9; type: in vitro ADME; settings: 37 °C, 5–200 μM Cbz-dFdC
Description: as §1

CES1 = target: T1, CES1 (Homo sapiens, UniProt P23141); assay: Enzymatic kinetics in vitro, human CES1 recombinase; type: in vitro ADME; settings: recombinant human CES1, 37 °C, 30 min, 5–200 μM Cbz-dFdC, read-out: Clint, disappearance of Cbz-dFdC
T1 construct: purchased Ruid Liver Disease Research Co., Ltd. (Shanghai, China)
T1 sequence (P23141 18-567): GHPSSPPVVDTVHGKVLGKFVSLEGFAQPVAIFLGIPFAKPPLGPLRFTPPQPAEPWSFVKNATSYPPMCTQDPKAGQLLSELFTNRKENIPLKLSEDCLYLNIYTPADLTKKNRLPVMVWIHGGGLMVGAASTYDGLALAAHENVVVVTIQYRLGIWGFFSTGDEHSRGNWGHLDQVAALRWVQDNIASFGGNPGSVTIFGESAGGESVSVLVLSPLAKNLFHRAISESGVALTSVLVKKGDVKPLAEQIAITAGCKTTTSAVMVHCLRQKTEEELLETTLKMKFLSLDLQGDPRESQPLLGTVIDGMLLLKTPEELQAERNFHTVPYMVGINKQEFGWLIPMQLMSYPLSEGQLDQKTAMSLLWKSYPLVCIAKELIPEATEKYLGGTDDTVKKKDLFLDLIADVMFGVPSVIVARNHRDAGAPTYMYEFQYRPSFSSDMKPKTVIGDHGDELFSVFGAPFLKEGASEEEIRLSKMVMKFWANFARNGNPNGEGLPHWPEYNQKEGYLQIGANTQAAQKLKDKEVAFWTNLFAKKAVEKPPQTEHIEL
Description: as §1

[8] = Enzymatic kinetics in vitro, rat blood; type: in vitro ADME; settings: 37 °C, 30 min, 5–200 μM Cbz-dFdC
Description: as §1

[9] = SD, read-out: Km, disappearance of Cbz-dFdC
[10] = SD, 30 min, read-out: Clint, disappearance of Cbz-dFdC
[11] = read-out: Km, appearance of dFdC
[12] = read-out: Km, disappearance of Cbz-dFdC
[13] = SD, read-out: Clint, disappearance of Cbz-dFdC

AUC(0-inf) [1]: 2690 ± 457 ng·h/mL | Cmax [1]: 451 ± 107 ng/mL | Tmax [1]: 2 h | half-life [1]: 9.91 ± 1.87 h | tissue penetration ([2]; drug concentration in tissue lower than plasma concentration): weak tissue penetration | Km at 30 min [3, 9]: 269 µM | microsomal CLint [3, 10]: 770 µL/min/mg | Km [4, 11]: 101 µM | Km [4, 12]: 90.3 µM | microsomal CLint [4, 13]: 5380 µL/min/mg | stability towards CES2 in humans ([5]; concluded from tissue-specific CES expression, humans): relatively stable in CES2 | degradation in human plasma and S9 of the kidney and intestine ([5]; human plasma, kidney S9, intestine S9): did not degrade | stability towards CES2 in rats ([6]; concluded from tissue-specific CES expression, rats): relatively stable in CES2 | degradation in rat intestine homogenate and S9 ([6]; rat intestine homogenate and S9, dFdC not generated): essentially non-degradable | Km at 30 min [7, 9]: 96.3 µM | microsomal CLint [7, 10]: 1760 µL/min/mg | microsomal CLint (CES1): 72700 µL/min/mg | Km [8, 11]: 73.2 µM | Km [8, 12]: 69.8 µM | microsomal CLint [8, 13]: 4890 µL/min/mg
SMILES: O=C(Nc1ccn([C@@H]2O[C@H](CO)[C@@H](O)C2(F)F)c(=O)n1)OCc1ccccc1 [Cbz-dFdC, 4-N-carbobenzoxy-gemcitabine]
cytotoxicity / tumor cell growth inhibition (human HepG2 cell line): certain cytotoxicity; also recorded: lower than that of an equimolar dose of dFdC | Cbz-dFdC level in the intestine versus other tissues ([2]; after i.g. Cbz-dFdC 22 mg/kg, liver, kidney, intestine, especially at 0.5 h): significantly higher than that in the other tissues; also recorded: mainly distributed in the intestine | Vmax, appearance of dFdC ([3]; 30 min): 50.2 nmol/min/mg pro | Vmax, disappearance of Cbz-dFdC ([3]; 30 min): 206.5 nmol/min/mg pro | Vmax, appearance of dFdC [4]: 230.4 nmol/min/mg pro | Vmax, disappearance of Cbz-dFdC [4]: 486.2 nmol/min/mg pro | Vmax, appearance of dFdC ([7]; 30 min): 49.5 nmol/min/mg pro | Vmax, disappearance of Cbz-dFdC ([7]; 30 min): 169.6 nmol/min/mg pro | Vmax, appearance of dFdC [8]: 178.5 nmol/min/mg pro | Vmax, disappearance of Cbz-dFdC [8]: 341.1 nmol/min/mg pro
